Experiments:
[1] = Phase 1 study in healthy subjects: urinary excretion of PAGN over 24 hours; format: in vivo, human; details: single oral dose; for Percent PAA Dose Excreted over 24 hours: urine as PAGN
Experimental: Plasma samples were separated by centrifugation within 1 hour of blood collection and stored at approximately −80° C. until analyzed. The total urine volume for each collection interval were measured and recorded and aliquots of urine were stored at approximately −80° C. until analyzed.

[2] = Phase 1 single-dose crossover study in healthy subjects: plasma PAA and PAGN pharmacokinetics
Experimental: Plasma samples were analyzed for concentrations of phenylacetic acid (PAA), phenylacetylglutamine (PAGN) and ornithine (ORN) using a validated LC-MS/MS method. All urine samples were analyzed for concentrations of PAGN using a validated LC-MS/MS method.
Pharmacokinetics: Plasma concentration vs. time profiles of phenylacetate, ornithine, and phenylacetylglutamine following a single oral dose of each of the study drug were analyzed by noncompartmental PK methods. Pharmacokinetic parameters that were determined include Cmax, tmax, AUC0-t, AUC0-∞, C12 and t1/2.

hepatic encephalopathy = details: cited from earlier work
ammonia = details: clinical study reported by Jalan et al. 2007; cited from earlier work

Molecule	PAA converted to PAGN excretion over 24 hours (conversion efficiency) ([1]; Table 2)	Percent PAA Dose Excreted over 24 hours ([1]; mean)	Percent PAA Dose Excreted over 24 hours ([1]; median)	Total PAGN Amount Excreted over 24 hours ([1]; urine, mean)	PAA Equivalents Excreted over 24 hours ([1]; urine, median)	Total PAGN Amount Excreted over 24 hours ([1]; urine, median)	time after dosing at which mean plasma PAGN Cmax occurred ([2]; single oral dose (10 g extended-release formulation or 6 mL RAVICTI))	mean maximum concentration (Cmax) of plasma PAA ([2]; single oral dose (10 g extended-release formulation or 6 mL RAVICTI, each about 5 g PAA equivalent))	incidence of hepatic encephalopathy events (hepatic encephalopathy; clinical studies, 6 mL twice daily)	efficacy for the treatment of hepatic encephalopathy (hepatic encephalopathy; clinical trials (Rockey et al., Hepatology 2014))	ammonia lowering (ammonia)
O=C(CCCc1ccccc1)OCC(COC(=O)CCCc1ccccc1)OC(=O)CCCc1ccccc1 [RAVICTI®, glycerol phenylbutyrate]	about 40%	42.7%	42.1%	4.11 G	2.09 G	4.06 G	approximately 5 hours	approximately 10 μg/mL	lower the incidence of hepatic encephalopathy events	preliminary efficacy	
L-ornithine phenylacetate											useful in ammonia lowering

Source: patent publication US11219611B2 (Ocera Therapeutics, Inc., priority 2015, dated 2022)
